Source: US20070197517A1, “Combination therapy for hyperproliferative disease” (Pfizer Inc., priority 2002, published 2007)
Counter-ions that a name gives are not always drawn.

How the values were obtained:
[1] = system: Human Colon Carcinoma Colo-205; assay: Anti-tumor efficacy of CPT-11 with Compound X, s.c. Colo-205 xenograft; assay type: in vivo, Nu/Nu mice; details: vs Gelucire vehicle day 12
Experimental: (§1) Exponentially grown human colon carcinoma Colo-205 cells [RPMI 1640 with 10% FBS, and pen/strep (Gibco)] were harvested and inoculated subcutaneously (5×10^6 cells/mouse, 200 μl) into the right flank of female Nu/Nu mice (˜20 grams; Charles River Laboratories, MA). 9 days after inoculation, tumor-bearing animals of approximately 150 mm^3 in size were separated into groups of 7 animals each.
(§2) CPT-11 (Camptosar®, Pharmacia & Upjohn, Kalamazoo, Mich.) was formulated in 0.9% saline and dosed iv×1 at 25 and 75 mg/kg. One group received 0.9% saline only (200 μl/animal, iv×1) which served as the control for the experiment. The mesylate salt of 3-(4-Bromo-2,6-difluoro-benzyloxy)-5-[3-(4-pyrrolidin-1-yl-butyl)-ureido}-isothiazole-4-carboxylic acid amide was formulated in 5% Gelucire (Gattefosse Inc., France) and dosed po, qd×12 at 25, 50 and 100 mg/kg. One group received 5% Gelucire only, (200 μl/animal, po, qd×12) which served as the vehicle control for the experiment.
(§3) Animal body weight and tumor measurements were obtained at regular intervals. Tumor volume (mm^3) was calculated using the formula length (mm)×width (mm)×width (mm)×0.5.
(§4) Mean tumor volume in Gelucire vehicle group on day 12 was used for the % growth inhibition calculation.

[2] = system: Human Non Small Cell Lung Carcinoma EBC-1; assay: Anti-tumor efficacy of carboplatin with Compound X, s.c. EBC-1 xenograft; assay type: in vivo; details: vs saline vehicle day 14
Experimental: as §1, with “non-small cell lung” for “colon”, “EBC-1” for “Colo-205”, “(10^7” for “(5×10^6”, “7” for “9”, “175” for “150”, “8” for “7”
Carboplatin (Bristol Oncology Products, Princeton, N.J.) was formulated in 0.9% saline and dosed ip., q3d×4 at 25 and 50 mg/kg. One group received 0.9% saline only (200 μl/animal, ip, q3d×4) which served as the control for the experiment. […] One group received 5% Gelucire only, (200 μl/animal, po, qd×14) which served as the vehicle control for the experiment.
as §3
Mean tumor volume in saline vehicle group on day 14 was used for the % growth inhibition calculation.

[3] = system: Human Colon Carcinoma Colo-205; assay: Anti-tumor efficacy of 5-FU with Compound X, s.c. Colo-205 xenograft; assay type: in vivo; details: vs Gelucire vehicle day 12
Experimental: as §1
as §2, with “5-FU (ICN Pharmaceuticals, Inc., Costa Mesa, Calif.)” for “CPT-11 (Camptosar®, Pharmacia & Upjohn, Kalamazoo, Mich.)”, “100” for “75”
as §3, §4

[4] = system: Human Pancreatic Carcinoma Capan-1; assay: Anti-tumor efficacy of gemcitabine hydrochloride and Compound X, s.c. Capan-1 xenograft; assay type: in vivo, Nu/Nu mice; details: for % Tumor Growth Inhibition: vs Gelucire vehicle day 13
Experimental: (10^7 cells/mouse, 200 μl) into the right flank of female Nu/Nu mice (˜20 grams; […] An overview of each of the groups and the treatment is set forth below in the table. [table] Animal body weight and tumor measurements were obtained at regular intervals. […] Mean tumor volume in Gelucire vehicle group on day 13 was used for % growth inhibition calculation.

[5] = system: Human Non Small Cell Lung Carcinoma EBC-1; assay: Anti-tumor efficacy of paclitaxel (Taxol) with Compound X, s.c. EBC-1 xenograft; assay type: in vivo, Nu/Nu mice; details: vs Gelucire vehicle day 15
Experimental: as §1, with “non-small cell lung” for “colon”, “EBC-1” for “Colo-205”, “[(RPMI” for “[RPMI”, “s.c. (10^7” for “subcutaneously (5×10^6”, “MA.). 7” for “MA). 9”, “5” for “7”
Compound X (the mesylate salt of 3-(4-Bromo-2,6-difluoro-benzyloxy)-5-[3-(4-pyrrolidin-1-yl-butyl)-ureido}-isothiazole-4-carboxylic acid amide) was formulated in 5% Gelucire (Gattefosse Inc. France) and dosed po., qd×15 at 12.5 and 100 mg/kg. Taxol® (MeadJohnson Oncology Products, Princeton, N.J.) was formulated in 0.9% sterile saline and dosed ip., qd×5 at 20 mg/kg. For control purposes one group received 5% Gelucire only (200 μl/animal, po, qd×15).
as §3
Mean tumor volume in Gelucire vehicle group on day 15 was used for the % growth inhibition calculation.

[6] = system: Human Breast Carcinoma MDA-MB-231; assay: Anti-tumor efficacy of doxorubicin with Compound X, s.c. MDA-MB-231 xenograft; assay type: in vivo, Nu/Nu mice; details: vs Gelucire vehicle day 24
Experimental: Exponentially grown human breast carcinoma MDA-MB-231 cells [DMEM with 10% FBS, and pen/strep (Gibco)] were harvested and inoculated subcutaneously (3-5×10^6 cells/mouse, 200 μl) into the right flank of female Nu/Nu mice (˜20 grams; Charles River Laboratories, MA). 36 days after inoculation, tumor-bearing animals of approximately 75 mm^3 in size were separated into control (n=19) or experimental groups of animals (n=7 each).
[…] The mesylate salt of 3-(4-Bromo-2,6-difluoro-benzyloxy)-5-[3-(4-pyrrolidin-1-yl-butyl)-ureido}-isothiazole-4-carboxylic acid amide was formulated in 5% Gelucire (Gattefosse Inc., France) and dosed po, qd×24 at 12.5, 25, 50 and 100 mg/kg. One group received 5% Gelucire only, (200 μl/animal, po, qd×24) which served as the vehicle control for the experiment.
as §3
Mean tumor volume in Gelucire vehicle group on day 24 was used for the % growth inhibition calculation.

[7] = Compound X 25 mg/kg, po, qd × 12
[8] = Compound X 50 mg/kg, po, qd × 12
[9] = Compound X 100 mg/kg, po, qd × 12

Compound: CCc1c2c(nc3ccc(OC(=O)N4CCC(N5CCCCC5)CC4)cc13)-c1cc3c(c(=O)n1C2)COC(=O)[C@]3(O)CC [CPT-11, irinotecan HCl, reference compound]
- % tumor growth ([1]; CPT-11 25 mg/kg, iv × 1, growth instead of inhibition): (7% Tumor Growth)
- % Tumor Growth Inhibition ([1]; CPT-11 75 mg/kg, iv × 1): 5%

Compound: N.N.O=C([O-])C1(C(=O)[O-])CCC1.[Pt+2] [Carboplatin, cis-diammine-1,1-cyclobutanedicarboxylato-platinum II]
- % Tumor Growth Inhibition ([2]; Carboplatin 25 mg/kg, ip, q3d × 4): 0%
- % Tumor Growth Inhibition ([2]; Carboplatin 50 mg/kg, ip, q3d × 4): 31%

Compound: O=c1[nH]cc(F)c(=O)[nH]1 [Compound 5-FU, 5-fluorouracil, reference compound]
- % Tumor Growth Inhibition ([3]; 5-FU 25 mg/kg, iv × 1): 24%
- % Tumor Growth Inhibition ([3]; 5-FU 100 mg/kg, iv × 1): 59%

Compound: NC(=O)c1c(OCc2c(F)cc(Br)cc2F)nsc1NC(=O)NCCCCN1CCCC1 [Compound X, 3-(4-Bromo-2,6-difluoro-benzyloxy)-5-[3-(4-pyrrolidin-1-yl-butyl)-ureido}-isothiazole-4-carboxylic acid amide]
- % Tumor Growth Inhibition ([2]; Compound X 100 mg/kg, po, qd × 4): 67%
- % Tumor Growth Inhibition [3, 7]: 21%
- % Tumor Growth Inhibition [3, 8]: 47%
- % Tumor Growth Inhibition [3, 9]: 64%
- % Tumor Growth Inhibition [1, 7]: 9%
- % Tumor Growth Inhibition [1, 8]: 28%
- % Tumor Growth Inhibition [1, 9]: 66%
- % Tumor Growth Inhibition ([4]; Group 2: Compound X 25 mg/kg, po, qd × 13): 16%
- % Tumor Growth Inhibition ([4]; Group 3: Compound X 100 mg/kg, po, qd × 13): 46%
- % Tumor Growth Inhibition ([5]; Compound X 12.5 mg/kg, po, qd × 15): 34%
- % Tumor Growth Inhibition ([5]; Compound X 100 mg/kg, po, qd × 15): 72%
- % tumor growth ([6]; Compound X 12.5 mg/kg, po, qd × 24, growth instead of inhibition): (10% tumor growth)
- % Tumor Growth Inhibition ([6]; Compound X 25 mg/kg, po, qd × 24): 24%
- % Tumor Growth Inhibition ([6]; Compound X 50 mg/kg, po, qd × 24): 46%
- % Tumor Growth Inhibition ([6]; Compound X 100 mg/kg, po, qd × 24): 49%

Compound: COc1cccc2c1C(=O)c1c(O)c3c(c(O)c1C2=O)C[C@@](O)(C(=O)CO)C[C@@H]3O[C@H]1C[C@H](N)[C@H](O)[C@H](C)O1 [Doxorubicin, reference compound]
- % Tumor Growth Inhibition ([6]; Doxorubicin 2.5 mg/kg, ip × 1): 7%
- % Tumor Growth Inhibition ([6]; Doxorubicin 10 mg/kg, ip × 1): 48%

Compound: Nc1ccn([C@@H]2O[C@H](CO)[C@@H](O)C2(F)F)c(=O)n1 [Gemcitabine HCl, Gemcitabine hydrochloride]
- % Tumor Growth Inhibition ([4]; Group 4: Gemcitabine HCl 1 mg/kg, ip, q3d × 4): 0%
- % Tumor Growth Inhibition ([4]; Group 5: Gemcitabine HCl 5 mg/kg, ip, q3d × 4): 26%
- mean tumor regression ([4]; Group 6: Gemcitabine HCl 80 mg/kg, ip, q3d × 4, day 1 volume of group = 100%): 66% regression*
- % Tumor Growth Inhibition ([4]; Group 6: Gemcitabine HCl 80 mg/kg, ip, q3d × 4): 83%

Compound: CC(=O)O[C@H]1C(=O)[C@@]2(C)[C@H]([C@H](OC(=O)c3ccccc3)[C@]3(O)C[C@H](OC(=O)[C@H](O)[C@@H](NC(=O)c4ccccc4)c4ccccc4)C(C)=C1C3(C)C)[C@]1(OC(C)=O)CO[C@@H]1C[C@@H]2O [Taxol ®, Paclitaxel, reference compound]
- % Tumor Growth Inhibition ([5]; Taxol 20 mg/kg, ip, qd × 5): 75%
